Data as given in PubChem BioAssay AID330 (DTP/NCI, 2004).
Several values for one entry are separate records, joined by “and”; a condition that tells them apart may be missing. Identical values can stand only once. Inconclusive results and toxic doses are left out. How the source made its calls: active means survival T/C of 150% or more; inactive means T/C below 125% in these data.

Test system: P388 leukemia ip, CD2F1 mice, survival T/C
Assay: NCI In Vivo Anticancer Drug Screen. Data for tumor model P388 Leukemia (intraperitoneal) in CD2F1 (CDF1) mice
Settings: endpoint: median survival time, higher = longer survival
Outline: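 Mice carrying the transplanted tumor received test compound or vehicle. Survival was recorded in each group, and the value is the treated-group measurement divided by that of the vehicle-treated control group.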

[1] = dose: 50.0 mg/kg/injection, schedule: Q01DX009 (ip), vehicle: Klucel (hydroxypropylcellulose) (HPC)
[2] = dose: 100.0 mg/kg/injection, schedule: Q01DX009 (ip), vehicle: Klucel (hydroxypropylcellulose) (HPC)
[3] = dose: 200.0 mg/kg/injection, schedule: Q01DX009 (ip), vehicle: Klucel (hydroxypropylcellulose) (HPC)
[4] = dose: 1.56 mg/kg/injection, schedule: Q01DX009 (ip), vehicle: Klucel (hydroxypropylcellulose) (HPC)
[5] = dose: 6.25 mg/kg/injection, schedule: Q01DX009 (ip), vehicle: Klucel (hydroxypropylcellulose) (HPC)
[6] = dose: 12.5 mg/kg/injection, schedule: Q01DX009 (ip), vehicle: Klucel (hydroxypropylcellulose) (HPC)
[7] = dose: 25.0 mg/kg/injection, schedule: Q01DX009 (ip), vehicle: Klucel (hydroxypropylcellulose) (HPC)
[8] = dose: 60.0 mg/kg/injection, schedule: Q01DX005 (ip), vehicle: saline with Tween-80
[9] = dose: 120.0 mg/kg/injection, schedule: Q01DX005 (ip), vehicle: saline with Tween-80

Measured: T/C

Nc1cc2c(=O)c3cc(Cl)cc(Cl)c3[nH]c2c2c1C(=O)c1ccccc1C2=O
inactive: [1] 99 % of control | [2] 105 % of control | [3] 100 % of control

CO[C@@H]1C2=CC=CC=C[C@H]2n2c(=O)n(C)c(=O)n21
inactive: dose: 50.0 mg/kg/injection, schedule: Q01DX005 (ip), vehicle: Klucel (hydroxypropylcellulose) (HPC) 100 % of control | dose: 75.0 mg/kg/injection, schedule: Q01DX005 (ip), vehicle: other 109 % of control | dose: 100.0 mg/kg/injection, schedule: Q01DX005 (ip), vehicle: Klucel (hydroxypropylcellulose) (HPC) 98 % of control | dose: 150.0 mg/kg/injection, schedule: Q01DX005 (ip), vehicle: other 115 % of control | dose: 200.0 mg/kg/injection, schedule: Q01DX005 (ip), vehicle: Klucel (hydroxypropylcellulose) (HPC) 102 % of control | dose: 300.0 mg/kg/injection, schedule: Q01DX005 (ip), vehicle: other 111 % of control

O=[N+]([O-])c1cnc(Sc2cncc[n+]2[O-])s1
inactive: [4] 100 % of control | dose: 3.12 mg/kg/injection, schedule: Q01DX009 (ip), vehicle: Klucel (hydroxypropylcellulose) (HPC) 93 % of control | [5] 102 % of control and 90 % of control

Nc1ccccc1-c1ccccc1N
inactive: dose: 60.0 mg/kg/injection, schedule: Q01DX005 (ip), vehicle: suspension in saline 99 % of control | dose: 120.0 mg/kg/injection, schedule: Q01DX005 (ip), vehicle: suspension in saline 103 % of control | dose: 240.0 mg/kg/injection, schedule: Q01DX005 (ip), vehicle: suspension in saline 90 % of control

C1=C[N]2c3c4c(ccc3=C1)=CC=C[N]4[Ga]2[c]1ccccc1
inactive: [5] 103 % of control | [6] 106 % of control | [7] 118 % of control

CCCCCCCCCCCCCCCCN1CCSCC1
inactive: dose: 12.5 mg/kg/injection, schedule: Q01DX009 (ip), vehicle: saline 91 % of control | dose: 25.0 mg/kg/injection, schedule: Q01DX009 (ip), vehicle: saline 97 % of control | dose: 50.0 mg/kg/injection, schedule: Q01DX009 (ip), vehicle: saline 98 % of control and 100 % of control | dose: 100.0 mg/kg/injection, schedule: Q01DX009 (ip), vehicle: saline 92 % of control

CC12CCC3C(CCC4CC(O)CCC43C)C1CC(C1(O)C(=O)Nc3ccccc31)C2=O (stereo unspecified)
inactive: dose: 25.0 mg/kg/injection, schedule: Q01DX009 (ip), vehicle: saline with Tween-80 94 % of control | dose: 50.0 mg/kg/injection, schedule: Q01DX009 (ip), vehicle: saline with Tween-80 88 % of control | dose: 100.0 mg/kg/injection, schedule: Q01DX009 (ip), vehicle: saline with Tween-80 94 % of control

Cc1ccc(S(=O)(=O)N(C)C2c3ccccc3Oc3ccccc32)cc1
inactive: [6] 106 % of control | [7] 106 % of control | [1] 106 % of control and 87 % of control | [2] 91 % of control | [3] 92 % of control | dose: 400.0 mg/kg/injection, schedule: Q01DX009 (ip), vehicle: Klucel (hydroxypropylcellulose) (HPC) 92 % of control

CCOC(=O)C(CCc1ccccn1)C(C)=O (stereo unspecified)
inactive: [8] 94 % of control | [9] 98 % of control | dose: 240.0 mg/kg/injection, schedule: Q01DX005 (ip), vehicle: saline with Tween-80 98 % of control

CC(=O)OCC1OC(n2cnc3c2N=CN2C(CCl)=CC(=O)NC32)C(OC(C)=O)C1OC(C)=O (stereo unspecified)
inactive: dose: 100.0 mg/kg/injection, schedule: Q01DX001 (ip), vehicle: saline with Tween-80 103 % of control | dose: 200.0 mg/kg/injection, schedule: Q01DX001 (ip), vehicle: saline with Tween-80 103 % of control | dose: 400.0 mg/kg/injection, schedule: Q01DX001 (ip), vehicle: saline with Tween-80 110 % of control

CN(C)c1ccc(/C=C(\NC(=O)c2ccccc2)c2nc3ccccc3s2)cc1
inactive: [8] 105 % of control | [9] 116 % of control | dose: 200.0 mg/kg/injection, schedule: Q01DX005 (ip), vehicle: saline with Tween-80 106 % of control

[F][Sn]([F])([c]1ccccc1)[c]1ccccc1
active: [4] 196 % of control
